Reference: patent US20090247579A1, “2-[3H-THIAZOL-2-YLIDINEMETHYL]PYRIDINES AND RELATED COMPOUNDS AND THEIR USE” (CANCER RESEARCH TECHNOLOGY LIMITED, priority 2006, published 2009)
Read-outs that look alike come from different tables or passages of the source.

Tests used:
A549 = experiment: Cancer cell line panel, A549 (NSCLC); format: cell-based
Procedure: (§1) Relative drug sensitivities (Resistance Factor) and IC50 values were determined by a modified MTT assay (see, e.g., Mosmann, 1983; Plumb et al., 1989), as described below: • (1) Trypsinise a sub-confluent monolayer culture and collect cells in growth medium containing serum. Centrifuge the suspension (200 g, 5 minutes) to pellet cells, re-suspend in growth medium, and count cells. Dilute cells to a density of 5×10^3 cells/mL allowing 60 mL of cell suspension for 3 microtitre plates. Transfer cell suspension to a 10 cm petri dish, and with a multichannel pipette add 200 μL to each well of the central 10 columns of a flat bottomed 96-well plate (80 wells per plate) starting with column 2 and ending with column 11. Add 200 μL of growth medium to the 8 wells in columns 1 and 12. […] Glycine buffer is added (25 μL per well) to all wells containing DMSO. • (8) Absorbance is recorded at 570 nm with the wells in column 1, which contained medium and MTT but no cells used as a blank. • (9) A graph is plotted of absorbance (y-axis) against drug concentration (x-axis). The mean absorbance reading from the wells in columns 2 and 11 is used as the control absorbance and the IC50 concentration is determined as the drug concentration required to reduce the absorbance to half that of the control. IC10 or IC90 values can be determined in the same manner. […]

SKMES = experiment: Cancer cell line panel, SKMES (NSCLC); format: cell-based
Procedure: as §1

MCF7 = experiment: Cancer cell line panel, MCF7 (breast); format: cell-based
Procedure: as §1

DU145 = experiment: Cancer cell line panel, DU145 (prostate); format: cell-based
Procedure: as §1

HS852 = experiment: Cancer cell line panel, HS852 (melanoma); format: cell-based
Procedure: as §1

[1] = test system: A2 (MLH1−ve, MMR deficient); experiment: Modified MTT assay, A2 line (A2780/cp70 + chromosome 3, MLH1 -ve); format: cell-based, human; conditions: for IC50: A2 line; for RF (Resistance Factor): fold difference in resistance between A2 (MMR deficient) and A1 (MMR proficient)
Procedure: (§2) Relative drug sensitivities (Resistance Factor) and IC50 values were determined by a modified MTT assay (see, e.g., Mosmann, 1983; Plumb et al., 1989), as described below: • (1) Trypsinise a sub-confluent monolayer culture and collect cells in growth medium containing serum. Centrifuge the suspension (200 g, 5 minutes) to pellet cells, re-suspend in growth medium, and count cells. Dilute cells to a density of 5×10^3 cells/mL allowing 60 mL of cell suspension for 3 microtitre plates. Transfer cell suspension to a 10 cm petri dish, and with a multichannel pipette add 200 μL to each well of the central 10 columns of a flat bottomed 96-well plate (80 wells per plate) starting with column 2 and ending with column 11. Add 200 μL of growth medium to the 8 wells in columns 1 and 12. Put the plates in a plastic box and incubate in a humidified atmosphere at 37° C. for 2-3 days so that cells are in the exponential phase of growth for drug addition. • (2) Prepare a serial 5-fold dilution of the cytotoxic drug in growth medium to give 8 concentrations. Pipette 6 mL of growth medium in to each of 7 universal containers (30 mL). Prepare 10 mL of the highest concentration of the drug and transfer 1.5 mL of this solution to the first universal container. Mix and then transfer 1.5 mL to the next universal container. Continue until the seventh universal container is reached. The concentrations should be chosen so that the highest concentration kills most of the cells and the lowest kills none of the cells. Normally, three plates are used for each drug to give triplicate determinations within one experiment. • (3) The medium is removed from all the wells in columns 2 to 11. This can be achieved with a hypodermic needle attached to a suction line. Cells in the 8 wells in columns 2 and 11 are fed with 200 μL of fresh growth medium. The drug solutions are transferred to 10 cm petri dishes and 200 μL added to all 8 wells of a column. For ease of analysis arrange the drug solutions in order so that the highest is in column 3 down to the lowest in column 10. Plates are returned to the plastic box and incubated for 24 hours. • (4) At the end of the drug exposure period, the medium is removed from all wells containing cells and the cells are fed with 200 μL of fresh medium. • (5) The plates are fed daily for two more days. • (6) The plates are fed with 200 μL of fresh medium and 50 μL of the MTT solution (5 mg/mL in PBS) is added to all wells in columns 1 to 11. Plates are wrapped in aluminium foil and incubated for 4 hours in a humidified atmosphere at 37° C. • (7) The medium and MTT are then removed from the wells and the purple MTT-formazan crystals dissolved by addition of 200 μL of DMSO to all wells in columns 1 to 11. Glycine buffer is added (25 μL per well) to all wells containing DMSO. • (8) Absorbance is recorded at 570 nm with the wells in column 1, which contained medium and MTT but no cells used as a blank. • (9) A graph is plotted of absorbance (y-axis) against drug concentration (x-axis). The mean absorbance reading from the wells in columns 2 and 11 is used as the control absorbance and the IC50 concentration is determined as the drug concentration required to reduce the absorbance to half that of the control. IC10 or IC90 values can be determined in the same manner.
(§3) A1, E1, and A2 are derived by transfer of human chromosome 3 into A2780/cp70. MLH1 is located on chromosome 3.
(§4) IC50 values (μM) for A1 (MLH1+ve, MMR proficient) or E1 (MLH1+ve, MMR proficient) and A2 (MLH1−ve, MMR deficient) lines and Resistance Factors (RF) (the fold difference in resistance between the A2 line, MMR deficient, and the A1 line, MMR proficient) were determined based on the MTT assay described above for several compounds of the present invention (including, e.g., MMR201). Compounds showing increased activity against the MLH1 deficient A2 line compared to the MLH1 proficient A1 or E1 line have RF values less than 1.

T47D = experiment: Cancer cell line panel, T47D (breast); format: cell-based
Procedure: as §1

COLO320DM = experiment: Modified MTT assay, colon panel COLO320DM; format: cell-based
Procedure: as §1

SW48 (MLH1) = experiment: Modified MTT assay, colon panel SW48; format: cell-based
Procedure: as §1

OVCAR4 = experiment: Cancer cell line panel, OVCAR4 (ovary); format: cell-based
Procedure: as §1

PC3 = experiment: Cancer cell line panel, PC3 (prostate); format: cell-based
Procedure: as §1

OVCAR5 = experiment: Cancer cell line panel, OVCAR5 (ovary); format: cell-based
Procedure: as §1

CALU = experiment: Cancer cell line panel, CALU (NSCLC); format: cell-based
Procedure: as §1

HCT15 (MSH6) = experiment: Modified MTT assay, colon panel HCT15; format: cell-based
Procedure: as §1

MDAMB231 = experiment: Cancer cell line panel, MDAMB231 (breast); format: cell-based
Procedure: as §1

RKO (MLH1) = experiment: Modified MTT assay, colon panel RKO; format: cell-based
Procedure: as §1

C8161 = experiment: Cancer cell line panel, C8161 (melanoma); format: cell-based
Procedure: as §1

[2] = test system: A1 (MLH1+ve, MMR proficient); experiment: Modified MTT assay, A1 line (A2780/cp70 + chromosome 3, MLH1 +ve); format: cell-based, human
Procedure: as §2, §3, §4

BE = experiment: Modified MTT assay, colon panel BE; format: cell-based
Procedure: as §1

## N.N.[Cl][Pt][Cl] [Cisplatin, reference compound]
A549; read-out: Cisplatin
  IC50: 1130 ± 40 nM
SKMES; read-out: Cisplatin
  IC50: 5160 ± 80 nM
MCF7; read-out: Cisplatin
  IC50: 1780 ± 170 nM
DU145; read-out: Cisplatin
  IC50: 1680 ± 40 nM
HS852; read-out: Cisplatin
  IC50: 1600 ± 90 nM
[1]
  IC50: 1900 ± 87 nM
  RF (Resistance Factor): 2.7
T47D; read-out: Cisplatin
  IC50: 5420 ± 220 nM
COLO320DM; read-out: Cisplatin IC50, MMR proficient, p53 mut
  IC50: 2900 ± 290 nM
SW48 (MLH1); read-out: Cisplatin IC50, MMR deficient, p53 wt
  IC50: 1820 ± 70 nM
OVCAR4; read-out: Cisplatin
  IC50: 1640 ± 150 nM
PC3; read-out: Cisplatin
  IC50: 2270 ± 270 nM
OVCAR5; read-out: Cisplatin
  IC50: 1780 ± 100 nM
CALU; read-out: Cisplatin
  IC50: 7250 ± 580 nM
HCT15 (MSH6); read-out: Cisplatin IC50, MMR deficient, p53 wt/mut
  IC50: 2920 ± 20 nM
MDAMB231; read-out: Cisplatin
  IC50: 11200 ± 700 nM
RKO (MLH1); read-out: Cisplatin IC50, MMR deficient
  IC50: 4010 ± 100 nM
C8161; read-out: Cisplatin
  IC50: 3460 ± 160 nM
[2]; read-out: A1 or E1 MLH1 +ve MMR proficient IC50
  IC50: 715 ± 69 nM
BE; read-out: Cisplatin IC50, MMR status unknown, p53 ?
  IC50: 8670 ± 1420 nM

## CC[n+]1c(/C=C2\Sc3oc4ccccc4c3N2C)ccc2cc(C)ccc21.[I-] [MMR201]
A549; Homo sapiens, read-out: MMR201
  IC50: 119 ± 10.6 nM
SKMES; read-out: MMR201
  IC50: 398 ± 61.9 nM
MCF7; Homo sapiens, read-out: MMR201
  IC50: 870 ± 54.8 nM
DU145; Homo sapiens, DU-145, read-out: MMR201
  IC50: 328 ± 7.8 nM
HS852; read-out: MMR201
  IC50: 75.3 ± 7.1 nM
[1]; Homo sapiens, A2780/CP70
  IC50: 23 ± 1 nM
[1]
  RF (Resistance Factor): 0.19
T47D; Homo sapiens, read-out: MMR201
  IC50: 319 ± 26 nM
COLO320DM; Homo sapiens, COLO 320DM, MMR proficient, p53 mut, read-out: MMR201 IC50
  IC50: 594 ± 28.5 nM
SW48 (MLH1); Homo sapiens, MMR deficient, p53 wt, read-out: MMR201 IC50
  IC50: 76.9 ± 7.3 nM
OVCAR4; Homo sapiens, OVCAR-4, read-out: MMR201
  IC50: 733 ± 41.2 nM
PC3; Homo sapiens, PC-3, read-out: MMR201
  IC50: 531 ± 50.3 nM
OVCAR5; Homo sapiens, OVCAR-5, read-out: MMR201
  IC50: 699 ± 54.6 nM
CALU; read-out: MMR201
  IC50: 380 ± 7.5 nM
HCT15 (MSH6); Homo sapiens, HCT-15, MMR deficient, p53 wt/mut, read-out: MMR201 IC50
  IC50: 584 ± 55.1 nM
MDAMB231; Homo sapiens, MDA-MB-231, read-out: MMR201
  IC50: 235 ± 22.5 nM
RKO (MLH1); MMR deficient, read-out: MMR201 IC50
  IC50: 27.2 ± 0.7 nM
C8161; Homo sapiens, read-out: MMR201
  IC50: 254.2 ± 0.4 nM
[2]; Homo sapiens, A2780/CP70, read-out: A1 or E1 MLH1 +ve MMR proficient IC50
  IC50: 121 ± 18 nM
BE; MMR status unknown, p53 ?, read-out: MMR201 IC50
  IC50: 125 ± 17.3 nM
